Inhibition and IC50 data for two molecules are collected here from ChEMBL document CHEMBL3351424, “Reversible ketomethylene-based inhibitors of human neutrophil proteinase 3” (J Med Chem, 2014).

Activity calls are given as the source filed them. The rule behind the calls is not given here. Starred links: 1 amine or outer side, 2 acyl side, 3 side chain; linkers in the order of their positions; H or OH if unused. Non-standard residues stand in square brackets, D forms with d. Residues, ends and D or L forms follow the SMILES beside them. *: point of attachment. EDDnp = O=[N+]([O-])c1ccc(NCCN*)c([N+](=O)[O-])c1; X1 = CCC[C@H](N[*:1])C(=O)C[C@@H](C)C(=O)[*:2]; 2Abz = Nc1ccccc1C(=O)O

Assay [1] addresses T1, Myeloblastin (Homo sapiens) (UniProt P24158).
T1 sequence (whole entry): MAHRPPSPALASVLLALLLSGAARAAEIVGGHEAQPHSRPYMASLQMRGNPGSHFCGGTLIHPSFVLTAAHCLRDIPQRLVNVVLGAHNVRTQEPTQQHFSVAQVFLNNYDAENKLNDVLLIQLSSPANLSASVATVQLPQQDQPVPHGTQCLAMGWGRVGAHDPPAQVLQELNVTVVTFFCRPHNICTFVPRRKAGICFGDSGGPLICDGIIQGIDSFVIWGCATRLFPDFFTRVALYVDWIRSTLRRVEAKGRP
In words: Inhibition of human PR3 using N-EY-FRET as substrate at 6 uM after 20 mins by fluorescence assay.

Assay [2] addresses T2, Myeloblastin (Homo sapiens, UniProt P24158).
T2 sequence (P24158 whole entry): T1 sequence (whole entry)
Nature of the assay: Inhibition of human PR3 using D-DY-FRET as substrate after 30 mins by HPLC analysis.

Assay [3] has as its target T3, Neutrophil elastase (Homo sapiens) (UniProt P08246).
T3 sequence (whole entry): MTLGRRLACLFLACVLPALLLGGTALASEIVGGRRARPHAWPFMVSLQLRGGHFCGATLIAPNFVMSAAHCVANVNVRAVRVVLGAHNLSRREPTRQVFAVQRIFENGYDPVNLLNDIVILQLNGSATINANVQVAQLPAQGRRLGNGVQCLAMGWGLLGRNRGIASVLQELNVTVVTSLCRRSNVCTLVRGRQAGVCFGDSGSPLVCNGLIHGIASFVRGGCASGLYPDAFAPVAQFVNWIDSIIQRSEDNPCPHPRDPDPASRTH
Nature of the assay: Inhibition of human NE using MeOSuc-AAPV-AMC as substrate at 6 uM after 30 mins by fluorescence assay.

Assay [4] addresses T3, Neutrophil elastase (Homo sapiens). In words: Inhibition of human NE using MeOSuc-AAPV-AMC as substrate after 30 mins by fluorescence assay.

For `O=S(=O)(F)Cc1ccccc1` [PHENYLMETHYLSULFONYLFLUORIDE], the inhibition in assay [1] and in assay [3] was 20% throughout. For the same molecule, the concentration for half-maximal inhibition (IC50) – broadly, the concentration that inhibits the measured activity by half – in assay [2] came out at 19.2 µM.
On to `CCC[C@H](NC(=O)[C@H](CO)NC(=O)[C@H](C)NC(=O)[C@@H](NC(=O)c1ccccc1N)C(C)C)C(=O)C[C@@H](C)C(=O)N[C@@H](CCC(=O)O)C(=O)N[C@@H](CCCNC(=N)N)C(=O)N[C@@H](CCC(N)=O)C(=O)NCCNc1ccc([N+](=O)[O-])cc1[N+](=O)[O-]` (H-[2Abz]VAS[X1]ERQ-EDDnp), for which the inhibition (as a rule, the share of the control response that was lost under treatment) in assay [4] was “inactive”.
